“Also recorded” adds a separate entry of the source. Where no end group is shown, it is not given here.
What was measured:
[1] = target: T1, Angiotensin converting enzyme (ACE) (Homo sapiens, UniProt P12821); test: ACE inhibitory (ACEI) activity, HHL substrate, HPLC detection of hippuric acid; type: biochemical; settings: synthetic peptides; HHL 5 mM, ACE 0.025 U/mL, 37°C 60 min, HPLC 228 nm
T1 construct: purchased Sigma–Aldrich (Shanghai) Trading Co., Ltd
Experimental: Eighty microlitres of HHL solution (5 mM) and 30 μL of sample mixture were incubated at 37°C for 5 min. Then, 40 μL of ACE solution (0.025 U/mL) was added to the mixture, followed by incubation at 37°C for 60 min. The reaction was terminated by adding 120 μL of 1 M HCl. After the addition of 700 μL of pure water, the mixture was filtered through a 0.22 μm membrane ([25]). The experiment included four groups: a control group (pure water), a negative control group (blank digestion solution), a positive control group (protein mixture), and a sample group (protein digestion solution). In the control group, HCl was added immediately after ACE.
Chromatograms were recorded via an Agilent instrument (Agilent, California, USA). Column: CAPCELL CORE AQ C18, 4.6 × 150 mm, 5 μm (Shiseido, Tokyo, Japan). Column temperature: 30°C. Flow rate: 1 mL/min. The injection volume was 100 μL. Mobile phase: 0.1% trifluoroacetic acid aqueous solution (A) and pure acetonitrile (B). Detection wavelength: 228 nm. Elution gradient: 0–10 min, 80% A/20% B. The calculation method was as follows:
Inhibitionrate(%)=[PA]c-[PA]s/[PA]c-[PA]b×100%
where [PA]c, [PA]s, and [PA]b represented the peak area of HA at 228 nm of the control group, experimental group, and blank group, respectively.

[2] = In vitro simulated gastrointestinal digestion (pepsin, trypsin): digestibility / digestion stability; type: in vitro ADME; settings: stability under digestion conditions in vitro; pepsin pH 2.0 37°C 2 h, then trypsin pH 8.0 37°C 2 h as described for the hydrolysate; mean ± spread
Experimental: In vitro digestion simulation was performed based on the method of Hao et al. ([24]). Broccoli protein suspension (5%, w/v) was hydrolyzed with papain (1%, E/S ratio) for 6 h (pH 7.0, 55°C). After hydrolysis, inactivated at 100°C for 10 min and cooled to 25°C. Based on the method of Hao et al. ([24]), the simulated digestion of broccoli papain hydrolysate was conducted. In short, 0.1 g pepsin (pH = 2.0) was mixed with the hydrolysate and placed at 37°C for 2 h. Then 0.2 g trypsin (pH = 8.0) was added and incubated at 37°C for 2 h. After enzymatic hydrolysis, the enzyme was inactivated at 95°C for 10 min, cooled to 25°C, and the supernatant was collected. Subsequently, freeze-dried broccoli crude peptide was applied to the determination of ACEI activity.
The crude protein hydrolysis of broccoli was analyzed by high performance liquid chromatography (Agilent 1260, California, USA). The Column was XBridge Peptides BEH C18 Column 130A, 4.6 × 250 mm, 5 μm (Waters, Massachusetts, USA). Column temperature: 37°C. Flow rate: 1 mL/min. Sample size: 100 μL. Mobile phase: 0.1% trifluoroacetic acid aqueous solution (phase A) and pure acetonitrile (phase B). Detection wavelengths: 214 and 280 nm. Elution gradient: 0–5 min, 100%A/0%B; 5–25 min, 60%A/40%B; 25–26 min, 20%A/80%B; 26–31 min, 20%A/80%B; 31–32 min, 100%A/0%B; 32–37 min, 100%A/0%B.

VSMCs [3] = test: CCK-8 cell viability of VSMCs in high glucose; type: cell-based, Sprague–Dawley rats; settings: high glucose (HG); for VSMC proliferation / viability: peptides 0.0313-0.5 mg/mL
Experimental: (§1) Thoracic aortas from male Sprague–Dawley rats (250–300 g) were dispersed in HBSS solution, which contained 1 mg/mL collagenase II (146 U/mg, Worthington Biochemical Corp., Freehold, NJ) and 0.5 mg/mL elastase I (32 U/mg, Worthington Biochemical Corp., Freehold, NJ). The mixture was digested for 90 min to obtain the appropriate VSMCs. The obtained VSMCs were subsequently cultured in DMEM supplemented with 10% FBS, 2 mmol/L glutamine, and 1 g/L D-glucose at 37°C in a humidified atmosphere of 5% CO2. The purity of the VSMCs was evaluated by the smooth muscle cell-specific marker SM22α (>97% for the stained cells). All the VSMCs used for the experiments were between the 3rd and 8th passages.
The cells (4 × 10^3 cells/well) were seeded into 96-well plates and cultured overnight. The cells were subjected to serum deprivation for 24 h. Then, the culture mixture was removed, and 100 μL of free FBS culture mixture was added to the above culture mixture. Ten microliters of CCK-8 solution was added to each well. The plates were read with a BioTek Epoch 2 Microplate Spectrophotometer (Agilent Technologies, California, USA). The experiment was organized into seven groups, which included a normal group, a high glucose group, and peptide segments: HLEVR, LTEVR, LEHGF, HLVNK, and LLDGR. These segments were tested at concentrations of 0.0313, 0.0625, 0.125, 0.25, and 0.5 mg/mL.

VSMCs [4] = test: Western blot of protein expression in VSMCs (Ang II-induced or high glucose); type: cell-based, Sprague–Dawley rats; settings: for ACE expression / expression of PCNA, MMP2, Bcl2 and Bax: VSMCs in high glucose (HG) + peptide
Experimental: as §1
Protein was extracted with RIPA buffer. Equal amounts of protein were separated via 8–10% SDS–PAGE (ACE, Changzhou, China) and then transferred to 0.22 μm PVDF membranes (Millipore, Bedford, MA, USA). The membranes were blocked with 5% skim milk and incubated overnight with the appropriate primary antibodies. HRP-conjugated secondary antibodies were then applied for binding and visualization through Western blot luminol reagent. Densitometry quantification was performed with ImageJ-V1.8.0.

Ang II = Ang II level in VSMCs cultured in high glucose (ELISA); type: cell-based, Sprague–Dawley rats; settings: high glucose (HG) + peptide
Experimental: as §1
The cells (2 × 10^4 cells per well) were first seeded into 24-well plates overnight. The supernatants were collected to measure the expression levels of Ang II via angiotensin II ELISA kits (ER1637, FineTest, Wuhan, China) according to the manufacturer's protocol. The absorbance of each well at 450 nm was determined via a multimode plate reader (BioTek Epoch2, Santa Clara, US).

Caco-2 cells = test: Caco-2 cell monolayer transport model (absorption simulation); type: in vitro ADME; settings: Caco-2 monolayer integrity marker, 12-well inserts, TEER 468.09 ± 37.54 Ω/cm^2
Experimental: Caco-2 cells were obtained from the Cell Bank of the Chinese Academy of Sciences. The cells were cultured in Dulbecco's modified Eagle's medium (DMEM) supplemented with 20% FBS and 1% penicillin/streptomycin (P/S) at 37°C and 5% CO2 in a humidified incubator.
Caco-2 cells were seeded in each chamber of a 12-well plate, which was equipped with cell culture inserts ([26]). The transepithelial electrical resistance (TEER) across the monolayer was measured every 2 days via a cell resistance meter (RE1600, Beijing Jegon Instrumentation Co., Ltd.). The integrity of the cell monolayer was assessed with fluorescein isothiocyanate (FITC). TEER values > 350 Ω/cm^2 were considered to indicate successful construction and validation of the Caco-2 cell transport model. The FITC permeability was < 5 × 10^−[…], indicating the integrity of the cell monolayer.
Broccoli protease hydrolysate was added to the apical (AP) side. After 120 min, the media from both the AP and basolateral (BL) sides were collected for subsequent analysis. The wells without cells or samples served as the control group, whereas the wells without samples served as the blank group.

T1 sequence (P12821 30-1306, species assumed): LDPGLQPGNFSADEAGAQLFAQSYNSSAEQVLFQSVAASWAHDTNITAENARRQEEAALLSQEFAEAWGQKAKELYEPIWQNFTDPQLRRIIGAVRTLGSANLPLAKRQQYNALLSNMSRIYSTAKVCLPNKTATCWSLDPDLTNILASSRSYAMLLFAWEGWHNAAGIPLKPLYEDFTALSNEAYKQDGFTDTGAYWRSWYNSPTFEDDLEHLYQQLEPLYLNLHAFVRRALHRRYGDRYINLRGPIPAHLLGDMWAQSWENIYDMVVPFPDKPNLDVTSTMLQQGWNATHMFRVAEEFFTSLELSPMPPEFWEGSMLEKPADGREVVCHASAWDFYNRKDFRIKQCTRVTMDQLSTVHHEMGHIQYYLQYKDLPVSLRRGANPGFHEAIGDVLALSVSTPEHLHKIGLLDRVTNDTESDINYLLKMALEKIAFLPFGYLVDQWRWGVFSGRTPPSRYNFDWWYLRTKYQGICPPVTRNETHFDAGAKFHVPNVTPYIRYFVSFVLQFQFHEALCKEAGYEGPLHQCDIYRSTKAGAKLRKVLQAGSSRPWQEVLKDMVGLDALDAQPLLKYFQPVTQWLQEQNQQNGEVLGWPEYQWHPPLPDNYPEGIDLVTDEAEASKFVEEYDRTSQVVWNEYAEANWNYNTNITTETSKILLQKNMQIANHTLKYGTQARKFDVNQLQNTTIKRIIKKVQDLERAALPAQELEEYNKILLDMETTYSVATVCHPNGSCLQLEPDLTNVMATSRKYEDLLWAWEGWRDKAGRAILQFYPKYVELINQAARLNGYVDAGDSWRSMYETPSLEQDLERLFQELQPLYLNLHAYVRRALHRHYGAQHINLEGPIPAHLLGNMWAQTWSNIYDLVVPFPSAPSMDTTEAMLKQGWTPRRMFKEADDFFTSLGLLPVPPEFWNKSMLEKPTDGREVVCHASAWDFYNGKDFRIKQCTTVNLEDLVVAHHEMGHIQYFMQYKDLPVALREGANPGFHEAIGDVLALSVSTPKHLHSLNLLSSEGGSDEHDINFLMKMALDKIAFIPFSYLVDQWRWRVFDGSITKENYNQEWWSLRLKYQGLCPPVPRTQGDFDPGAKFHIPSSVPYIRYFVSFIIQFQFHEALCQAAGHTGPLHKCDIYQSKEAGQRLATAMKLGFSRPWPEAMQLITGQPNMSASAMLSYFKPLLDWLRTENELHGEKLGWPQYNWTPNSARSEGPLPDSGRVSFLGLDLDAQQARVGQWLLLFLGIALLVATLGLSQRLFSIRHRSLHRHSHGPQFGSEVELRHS

Substance: HLEVR [HLEVR]
- IC50 [1]: 3.19 ± 0.23 mM
- Digestion stability (%) [2]: 94.27 ± 2.64%

Substance: HLVNK [HLVNK]
- IC50 [1]: 0.06 ± 0.01 mM
- VSMC proliferation / viability (VSMCs [3]): effectively reduce VSMC viability
- Digestion stability (%) [2]: 95.78 ± 3.73%
- ACE expression (VSMCs [4]): modulated ACE expression
- expression of PCNA, MMP2, Bcl2 and Bax (VSMCs [4]): significantly restored the expression of these proteins
- Ang II levels in VSMCs (Ang II): significantly inhibit intracellular Ang II levels
- Ang II levels in VSMCs (Ang II; listed as HLLVNK): significantly reduced Ang II levels

Substance: LEHGF [LEHGF]
- IC50 [1]: 0.64 ± 0.02 mM
- Digestion stability (%) [2]: 97.85 ± 6.31%

Substance: LLDGR [LLDGR]
- IC50 [1]: 2.81 ± 0.12 mM

Substance: LTEVR [LTEVR]
- IC50 [1]: 17.1 ± 1.37 mM
- cell viability of VSMCs (VSMCs [3]; peptide 0.5 mg/mL): not significant
- VSMC proliferation / viability (VSMCs [3]): effectively reduce VSMC viability
- Digestion stability (%) [2]: 98.82 ± 3.92%
- ACE expression (VSMCs [4]): modulated ACE expression
- expression of PCNA, MMP2, Bcl2 and Bax (VSMCs [4]): significantly restored the expression of these proteins
- Ang II levels in VSMCs (Ang II): significantly reduced Ang II levels; also recorded: significantly inhibit intracellular Ang II levels

Substance: angiotensin II (DRVYIHPF; Angiotensin-2; UniProt P01019 25-32, looked up) [Ang II, angiotensin II, used to induce VSMC dysfunction]
- downregulation of ACE2 expression (VSMCs [4]; VSMCs treated with Ang II): 15.60 ± 0.028%
- upregulation of ACE expression (VSMCs [4]; VSMCs treated with Ang II): 136.50 ± 0.017%
- upregulation of AT1R expression (VSMCs [4]; VSMCs treated with Ang II): 27.31 ± 0.020%
- upregulation of BCL2 expression (VSMCs [4]; VSMCs treated with Ang II): 40.26 ± 0.051%
- upregulation of ERK1/2/Total ERK (VSMCs [4]; VSMCs treated with Ang II): 128.17 ± 0.028%
- upregulation of MMP2 expression (VSMCs [4]; VSMCs treated with Ang II): 14.97 ± 0.044%
- upregulation of PCNA expression (VSMCs [4]; VSMCs treated with Ang II): 49.56 ± 0.01%
- upregulation of pp38/Total p38 (VSMCs [4]; VSMCs treated with Ang II): 14.58 ± 0.041%

Substance: lucifer yellow
- apparent permeability coefficient (Papp) (Caco-2 cells): 2.87 ± 0.53 × 10^−7 cm^2/s
